Values after ≈ are worked out from the molar mass of the structure shown.

One data set concerns T1, E. coli ΔtolC.
T1 construct: BW25113 ΔtolC efflux-deficient tolC deletion strain
The data set is described as follows: microbe, parasite or virus in culture. Also noted: resazurin microtiter MIC90 in CAMHB, aerobic, 2-fold dilutions, fluorescence; turnover below 10% of control. The conditions noted are these: Escherichia coli, 5 h; MIC90, antibiotic alone, aerobic; read-out: MIC90 against E. coli ∆tolC under aerobic conditions (µg/mL) / Alone. The protocol:
The MIC was determined using the colorimetric resazurin microtiter assay. Experiments were performed in 96-well plate format with a 100 μl final volume. Briefly, a suspension of an E. coli strain of interest was prepared in CAMHB (BD) at an A600 of 0.001. When required, boosters or arabinose were added to the suspension, and MTZ or NFZ antibiotics were tested in a concentration gradient through serial 2-fold dilutions. After 5 h of incubation at 37 °C, 10 μl of resazurin 12.5% was added to each well, and an additional incubation was carried out for 1.5 h. Fluorescence was measured using a Fluostar Optima BMG Labtech (Ex: 530 nm; Em: 590 nm). Values were converted to resazurin turnover based on minimal (no bacteria added to the medium) and maximal (no antibiotic added) fluorescence values. MIC90 values were determined when resaruzin turnover was ˂10% of control.

The target of data set [1] is T2, NfsA (Escherichia coli, UniProt P17117).
T2 construct: recombinant His-tagged NfsA (pET28, gene from BW25113)
T2 sequence (P17117 1-240): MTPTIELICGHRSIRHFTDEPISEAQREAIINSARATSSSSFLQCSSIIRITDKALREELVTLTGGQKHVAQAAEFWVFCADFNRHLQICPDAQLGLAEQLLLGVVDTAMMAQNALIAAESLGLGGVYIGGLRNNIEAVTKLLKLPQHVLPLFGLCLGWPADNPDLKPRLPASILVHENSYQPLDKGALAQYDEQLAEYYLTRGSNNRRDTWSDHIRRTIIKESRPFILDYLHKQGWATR
Put plainly: UHPLC-MS turnover by purified NfsA with NADPH consumption and GSH trapping. It is filed as biochemical.

Data set [2] addresses T2, NfsA. Put plainly: UHPLC-MS of NADPH consumption and NADP+ production by purified NfsA. It counts as biochemical.
In data set [3] the test system is MarR (His-tagged) (Escherichia coli BW25113). Put plainly: EMSA. The conditions noted are these: EMSA: His-MarR 5 uM preincubated with BDM76441 15 min 25 C, then 100 nM marO 15 min 25 C (10 ul); 6% DNA retardation gel, 0.5x TBE, 150 V 45 min; binding …. A general note: In EMSA bound probe runs differently from free probe, usually more slowly.
For data set [4], the target named is T2, NfsA. Put plainly: EPR detection of MTZ radical anion formed by purified NfsA (1-electron reduction); NADPH consumption by UHPLC-MS. It counts as biochemical.
For another data set, the target named is T3, MarR (Escherichia coli, UniProt P27245).
T3 construct: recombinant His-tagged MarR (pET15b, gene from BW25113)
T3 sequence (P27245 whole entry): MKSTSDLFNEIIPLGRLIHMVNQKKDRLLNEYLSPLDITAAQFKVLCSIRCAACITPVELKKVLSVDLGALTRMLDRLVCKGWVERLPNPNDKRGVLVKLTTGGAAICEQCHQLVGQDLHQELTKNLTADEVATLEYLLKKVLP
The data set is described as follows: thermal shift assay with Kd (ΔTm […] °C); EMSA release of marO DNA (EC50 […]). It counts as binding.

In data set [5] the target is T2, NfsA. Put plainly: reduction by purified recombinant NfsA (2-electron reduction). It is filed as biochemical.

Take `NC(=O)N/N=C/c1ccc([N+](=O)[O-])o1` [NFZ, nitrofurazone]: the MIC90 with E. coli ΔtolC was found to be 15.6 µg/mL (≈ 78.7 µM). Further, the “UHPLC-MS turnover by purified NfsA with NADPH consumption and GSH trapping” value at NfsA [1] is given as “with purified recombinant NfsA, we observed a rapid biotransformation of NFZ accompanied by a conversion of NADPH to NADP+”.

Turning to `Cc1ncc([N+](=O)[O-])n1CC(O)CCl` (centres unmarked) [Ornidazole], in the data set with E. coli ΔtolC, the MIC90 is over 500 µg/mL.

As to `NC(=O)C1=CN([C@@H]2O[C@H](COP(=O)(O)OP(=O)(O)OC[C@H]3O[C@@H](n4cnc5c(N)ncnc54)[C@H](OP(=O)(O)O)[C@@H]3O)[C@@H](O)[C@H]2O)C=CC1` [NADPH], at NfsA [2], the “UHPLC-MS of NADPH consumption and NADP+ production by purified NfsA” value was “rapid biotransformation of NFZ accompanied by a conversion of NADPH to NADP+ as measured by UHPLC-MS analysis”.

On to `Cc1ncc([N+](=O)[O-])n1C` [Dimetridazole], for which the MIC90 in the data set with E. coli ΔtolC was over 500 µg/mL.

The term IC50 denotes the concentration at which inhibition is half-maximal. High values mean a need for much substance, low ones inhibition by little substance. In turn, marO (marRAB promoter PCR fragment) gave an IC50 in data set [3] of 38 µM. This lies in the double-digit micromolar range.

For `Cc1ncc([N+](=O)[O-])n1CCO` [MTZ, metronidazole], the MIC90 in the data set on E. coli ΔtolC is over 500 µg/mL. In addition, on NfsA [4], the “EPR detection of MTZ radical anion formed by purified NfsA (1-electron reduction)” value was “these results confirmed the formation of MTZ radical anions by NfsA under aerobic conditions”.

As to `Cc1ncc([N+](=O)[O-])n1CCCO` [Ternidazole], in the data set with E. coli ΔtolC, the MIC90 was over 500 µg/mL.

Consider `O=[N+]([O-])c1cncn1CCN1CCOCC1` [Nimorazole], for which the MIC90 in the data set on E. coli ΔtolC was over 500 µg/mL.

What is called Kd is the constant that tells how readily two partners part at equilibrium. On to `O=C(Nc1ccc(I)cc1C(=O)O)c1cccs1` [BDM76441], for which, at MarR, the Kd came out at 9.8 ± 1.6 µM.

On to `Cc1ncc([N+](=O)[O-])n1CC(C)O` (centres unmarked) [Secnidazole], for which the MIC90 in the data set with E. coli ΔtolC was over 500 µg/mL.

Turning to `CC1=CC(=O)c2ccccc2C1=O` [menadione], the “reduction by purified recombinant NfsA (2-electron reduction)” value at NfsA [5] is “confirmed that NfsA could reduce both menadione (2-electron reduction) and ferrocyanide (1-electron reduction)”.

Consider `O=C(Cn1ccnc1[N+](=O)[O-])NCc1ccccc1` [Benznidazole], for which, in the data set with E. coli ΔtolC, the MIC90 turned out to be 62.5 µg/mL (≈ 240 µM).

The values above are taken from article PMC11259696, “Small molecule MarR modulators potentiate metronidazole antibiotic activity in aerobic E. coli by inducing activation by the nitroreductase NfsA” (The Journal of Biological Chemistry, 2024).
